The record followed here is patent US20230146233A1, “A CLASS OF POLYCYCLIC COMPOUNDS INHIBITING RNA HELICASE DHX33 AND THE APPLICATION THEREOF” (Shenzhen KeYe Life Technologies, Co., Ltd, priority 2020, published 2023).

In the test the test system is U251-MG cells. As to the kind of experiment: Half-maximal cell-inhibitory concentration on U251-MG cells (CCK-8). The format is cell-based. To be noted: Homo sapiens, U-251, U251-MG cells (DHX33-overexpressing cancer cell strain), 48 hours, read-out: IC50 (half-maximal inhibitory concentrations of compounds on U251-MG cells). As to the method:
U251-MG cells were purchased from the cell bank of the Chinese Academy of Sciences. Cells were cultured in MEM medium containing 10% fetal bovine serum (FBS), 2 mM L-glutammie, streptomycmn and penicillin. The growth conditions were set as follows: a humidified cell incubator (37° C., 5% CO2). Cells were passaged every 3 days and were discarded after 10 passages.
U251-MG cells (a […]-overexpressing cancer cell strain) were seeded on a 96-well plate at 1×10^4 cells/100 μl/well. After the cells were completely attached, the compounds were added to the cell culture medium at a concentration of 5 nM, 10 nM, 25 nM, 50 nM, 100 nM, […], 500 nM, 1000 nM, 2000 nM, […] or 20 μM, and the resulting mixture was uniformly mixed with a multichannel pipette. After the cells were incubated with the compound for 48 hours, CCK-8 reagent (Yeasen Biotechnology (Shanghai) Co., Ltd.) was added to the medium in the 96-well plate in accordance with the standard procedure. After being incubated for 2 hours, the plate was read with a microplate reader (OD=450 nm). The experiment was repeated three times, the inhibition curve of the compound at different concentrations was plotted, and the half-maximal inhibitory concentration (IC50) of the compound was calculated.
Consider `COc1cc2nc(/C(C#N)=C/c3cc(C)n(-c4sc(C)c(C)c4C#N)c3C)[nH]c2cn1` [AB24308, (E)-2-(3-(2-cyano-2-(6-methoxy-3H-imidazo[4,5-c]pyridin-2-yl)vinyl)-2,5-dimethyl-1H-pyrrol-1-yl)-4,5-dimethylthiophene-3-carbonitrile], for which the IC50 is less than 0.1 µM.
As for `COc1nccc2nc(/C(C#N)=C/c3cc(C)n(-c4sc(C)c(C)c4C#N)c3C)[nH]c12` [AB24309], the IC50 lay in the range of 1 to 5 µM.
For `COc1ccnc2nc(/C(C#N)=C/c3cc(C)n(-c4sc(C)c(C)c4C#N)c3C)[nH]c12` [AB24310, (E)-2-(3-(2-cyano-2-(7-methoxy-1H-imidazo[4,5-b]pyridin-2-yl)vinyl)-2,5-dimethyl-1H-pyrrol-1-yl)-4,5-dimethylthiophene-3-carbonitrile], the IC50 fell in the range of 5 to 20 µM.
For `COC(=O)c1cc(C)sc1-n1c(C)cc(/C=C(\C#N)c2nc3cc(OC)ncc3[nH]2)c1C` [AB24311, methyl (E)-2-(3-(2-cyano-2-(6-methoxy-3H-imidazo[4,5-c]pyridin-2-yl)vinyl)-2,5-dimethyl-1H-pyrrol-1-yl)-5-methylthiophene-3-carboxylate] the value was less than 0.1 µM; for `COc1cc2nc(/C(C#N)=C/c3cc(C)n(-c4sc(C)cc4C(N)=O)c3C)[nH]c2cn1` [AB24313, (E)-2-(3-(2-cyano-2-(6-methoxy-3H-imidazo[4,5-c]pyridin-2-yl)vinyl)-2,5-dimethyl-1H-pyrrol-1-yl)-5-methylthiophene-3-carboxamide], 0.1 to 1 µM; for `COC(=O)c1c(-n2c(C)cc(/C=C(\C#N)c3nc4cc(OC)ncc4[nH]3)c2C)sc(C)c1C` [AB24316], 0.1 to 1 µM.
As for `CCc1cc(C#N)c(-n2c(C)cc(/C=C(\C#N)c3nc4cc(OC)ncc4[nH]3)c2C)s1` [AB24317, (E)-2-(3-(2-cyano-2-(6-methoxy-3H-imidazo[4,5-c]pyridin-2-yl)vinyl)-2,5-dimethyl-1H-pyrrol-1-yl)-5-ethylthiophene-3-carbonitrile], the IC50 is less than 0.1 µM.
To `COc1cc2nc(/C(C#N)=C/c3cc(C)n(-c4sc(C)nc4C)c3C)[nH]c2cn1` [AB24319] belongs 0.1 to 1 µM.
As for `CCOC(=O)c1cc(C#N)c(-n2c(C)cc(/C=C(\C#N)c3nc4cc(OC)ncc4[nH]3)c2C)s1` [AB24320], the IC50 was 1 to 5 µM.
Consider `COc1cc2nc(/C(C#N)=C/c3cc(C)n(-c4sc(Br)cc4C#N)c3C)[nH]c2cn1` [AB24323, (E)-5-bromo-2-(3-(2-cyano-2-(6-methoxy-3H-imidazo[4,5-c]pyridin-2-yl)vinyl)-2,5-dimethyl-1H-pyrrol-1-yl)thiophene-3-carbonitrile], for which the IC50 is less than 0.1 µM.
On to `COc1cc2nc(/C(C#N)=C/c3cc(C)n(-c4sc(C5CC5)cc4C#N)c3C)[nH]c2cn1` [AB24324, (E)-2-(3-(2-cyano-2-(6-methoxy-3H-imidazo[4,5-c]pyridin-2-yl)vinyl)-2,5-dimethyl-1H-pyrrol-1-yl)-5-cyclopropylthiophene-3-carbonitrile], for which the IC50 was less than 0.1 µM.
`COc1cc2nc(/C(C#N)=C/c3cc(C)n(-c4sc(C(C)C)cc4C#N)c3C)[nH]c2cn1` [AB24325, (E)-2-(3-(2-cyano-2-(6-methoxy-3H-imidazo[4,5-c]pyridin-2-yl)vinyl)-2,5-dimethyl-1H-pyrrol-1-yl)-5-isopropylthiophene-3-carbonitrile]: the IC50 was in the range of 0.1 to 1 µM.
Take `COc1cc2nc(/C(C#N)=C/c3cc(C)n(-c4sc(C(C)(C)C)cc4C#N)c3C)[nH]c2cn1` [AB24326]: the IC50 was 0.1 to 1 µM.
Turning to `COc1cc2nc(/C(C#N)=C/c3cc(C)n(-c4sc(Cc5ccccc5)cc4C#N)c3C)[nH]c2cn1` [AB24328, (E)-5-benzyl-2-(3-(2-cyano-2-(6-methoxy-3H-imidazo[4,5-c]pyridin-2-yl)vinyl)-2,5-dimethyl-1H-pyrrol-1-yl)thiophene-3-carbonitrile], the IC50 was 0.1 to 1 µM.
